The term EC50 denotes the concentration giving half of the maximal effect.

The target in one test is T1, FPR1 (Homo sapiens, UniProt P21462).
T1 sequence (P21462 1-350): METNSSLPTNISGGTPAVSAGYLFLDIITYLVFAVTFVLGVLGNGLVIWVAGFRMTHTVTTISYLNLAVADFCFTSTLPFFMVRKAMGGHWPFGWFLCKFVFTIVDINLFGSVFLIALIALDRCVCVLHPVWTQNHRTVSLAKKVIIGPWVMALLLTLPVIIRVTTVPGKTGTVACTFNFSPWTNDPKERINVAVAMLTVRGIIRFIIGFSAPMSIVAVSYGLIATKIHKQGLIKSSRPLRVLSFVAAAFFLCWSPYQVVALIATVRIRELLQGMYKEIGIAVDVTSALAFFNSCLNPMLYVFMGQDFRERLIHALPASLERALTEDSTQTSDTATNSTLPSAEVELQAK
Briefly: Change in calcium activity by peptide, FPR1 activation effect. It is filed as cell-based. The conditions noted are these: calcium activity (Fura-2), graded per Table 3, read-out: EC50 for [Ca^2+] FPR1. In short, it runs like this:
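Cells plated at 3×10^5 per well the day before were loaded with Fura-2 for 1 h at 37 °C, then kept 30 min in the dark at room temperature. Peptide-evoked calcium changes were recorded on a FlexStation 3.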

A further test has as its target T2, FPR2 (Homo sapiens, UniProt P25090).
T2 construct: expressed in transfected cells; host or cells: RBL cells (RBL-FPR2)
T2 sequence (P25090 1-351): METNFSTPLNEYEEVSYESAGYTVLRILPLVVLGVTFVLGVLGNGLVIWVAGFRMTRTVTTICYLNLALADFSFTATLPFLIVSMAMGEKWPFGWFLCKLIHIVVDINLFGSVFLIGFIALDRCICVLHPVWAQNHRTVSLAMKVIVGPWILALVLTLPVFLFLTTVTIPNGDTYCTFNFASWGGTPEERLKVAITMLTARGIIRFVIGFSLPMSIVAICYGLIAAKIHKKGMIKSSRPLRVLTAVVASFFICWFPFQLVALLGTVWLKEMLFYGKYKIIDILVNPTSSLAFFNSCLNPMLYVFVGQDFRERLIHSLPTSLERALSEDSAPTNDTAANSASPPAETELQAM
Briefly: Change in calcium activity by peptide (Fura-2) in RBL cells overexpressing FPR2. The conditions noted are these: calcium activity (Fura-2), graded per Table 3, read-out: EC50 for [Ca^2+] FPR2. It is filed as cell-based. The method, boiled down:
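Rat basophilic leukemia cells overexpressing FPR2 loaded with Fura-2 (37 °C 1 h, then RT 30 min dark); peptides (0.5 mM stocks in water or 50% DMSO) diluted in HBSS + 20 mM HEPES and added on a plate reader, intracellular Ca2+ change recorded.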

Molecules are shown by their SMILES. Peptide text beside a SMILES is read from it.

Turning to `CSCC[C@H](NC(=O)[C@H](CCCNC(=N)N)NC(C)=O)C(=O)N[C@@H](CCCNC(=N)N)C(=O)N[C@@H](Cc1ccc(O)cc1)C(=O)N[C@@H](CCCCN)C(=O)N1CCC[C@H]1C(=O)N[C@H](CCSC)C(N)=O` [Peptide 51] (HELM PEPTIDE1{[ac].R.M.R.Y.K.P.[dM].[am]}$$$$V2.0), the EC50 is greater than 10000 nM on FPR1 and less than 10 nM at FPR2.
The matching figures for `CCCCCCCC(=O)N[C@@H](CCCNC(=N)N)C(=O)N[C@@H](CCSC)C(=O)N[C@@H](CCCNC(=N)N)C(=O)N[C@@H](Cc1ccc(O)cc1)C(=O)N[C@@H](Cc1c[nH]c2ccccc12)C(=O)N1CCC[C@H]1C(=O)N[C@H](CCSC)C(N)=O` [Peptide 109] (HELM PEPTIDE1{[CCCCCCCC(=O)[*:2]].R.M.R.Y.W.P.[dM].[am]}$$$$V2.0): 1000 to 10000 nM and less than 10 nM.
The matching figures for `CCCC(=O)N[C@@H](CCSC)C(=O)N[C@@H](CCCNC(=N)N)C(=O)N[C@@H](Cc1ccc(O)cc1)C(=O)N[C@@H](Cc1c[nH]c2ccccc12)C(=O)N1CCC[C@H]1C(=O)N[C@H](CCSC)C(N)=O` [Peptide 112] (HELM PEPTIDE1{[CCCC(=O)[*:2]].M.R.Y.W.P.[dM].[am]}$$$$V2.0): 1000 to 10000 nM and less than 10 nM.
The matching figures for `CCCC(=O)N[C@@H](Cc1c[nH]cn1)C(=O)N[C@@H](CCSC)C(=O)N[C@@H](CCCCN)C(=O)N[C@@H](Cc1ccc(O)cc1)C(=O)N[C@@H](Cc1ccc(O)cc1)C(=O)N[C@@H](Cc1ccc(O)cc1)C(=O)N[C@H](CCSC)C(N)=O` [Peptide 127] (HELM PEPTIDE1{[CCCC(=O)[*:2]].H.M.K.Y.Y.Y.[dM].[am]}$$$$V2.0): greater than 10000 nM and less than 10 nM.
`CSCC[C@@H](NC(=O)[C@@H](NC(=O)[C@H](Cc1c[nH]c2ccccc12)NC(=O)[C@H](Cc1ccc(O)cc1)NC(=O)[C@H](CCCNC(=N)N)NC(=O)[C@H](Cc1c[nH]c2ccccc12)NC(=O)[C@@H](N)CCCNC(=N)N)C(C)C)C(N)=O` [Peptide 101] (HELM PEPTIDE1{R.W.R.Y.W.V.[dM].[am]}$$$$V2.0): the EC50 is 1000 to 10000 nM at FPR1 and less than 10 nM at FPR2.
The matching figures for `CCCCCCCC(=O)N[C@@H](CCCNC(=N)N)C(=O)N[C@@H](Cc1c[nH]c2ccccc12)C(=O)N[C@@H](CCCNC(=N)N)C(=O)N[C@@H](Cc1ccc(O)cc1)C(=O)N[C@@H](CCCCN)C(=O)N[C@H](C(=O)N[C@H](CCSC)C(N)=O)C(C)C` [Peptide 2] (HELM PEPTIDE1{[CCCCCCCC(=O)[*:2]].R.W.R.Y.K.V.[dM].[am]}$$$$V2.0): 1000 to 10000 nM and 11 to 100 nM.
The matching figures for `CSCC[C@H](NC(=O)[C@@H](N)CCCNC(=N)N)C(=O)N[C@@H](CCCNC(=N)N)C(=O)N[C@@H](Cc1ccc(O)cc1)C(=O)N[C@@H](CCCCN)C(=O)N1CCC[C@H]1C(=O)N[C@H](CCSC)C(N)=O` [Peptide 50] (HELM PEPTIDE1{R.M.R.Y.K.P.[dM].[am]}$$$$V2.0): greater than 10000 nM and less than 10 nM.
In the case of `CSCC[C@@H](NC(=O)[C@H](Cc1ccc(O)cc1)NC(=O)[C@H](CCCNC(=N)N)NC(=O)[C@H](Cc1ccc(O)cc1)NC(=O)[C@H](CCCNC(=N)N)NC(=O)[C@H](Cc1c[nH]c2ccccc12)NC(=O)[C@@H](N)CCCNC(=N)N)C(N)=O` [Peptide 48] (HELM PEPTIDE1{R.W.R.Y.R.Y.[dM].[am]}$$$$V2.0), the EC50 on FPR1 was greater than 10000 nM; at FPR2, 11 to 100 nM.
The corresponding values for `CSCC[C@H](NC(=O)[C@@H](N)Cc1c[nH]cn1)C(=O)N[C@@H](CCCCN)C(=O)N[C@@H](Cc1ccc(O)cc1)C(=O)N[C@@H](CCCCN)C(=O)N[C@H](C(=O)N[C@H](CCSC)C(N)=O)C(C)C` [Peptide 21] (HELM PEPTIDE1{H.M.K.Y.K.V.[dM].[am]}$$$$V2.0) are greater than 10000 nM and less than 10 nM.
The matching figures for `CSCC[C@@H](NC(=O)[C@H](Cc1ccc(O)cc1)NC(=O)[C@@H](NC(=O)[C@H](Cc1ccc(O)cc1)NC(=O)[C@H](CCCNC(=N)N)NC(=O)[C@H](Cc1c[nH]c2ccccc12)NC(=O)[C@@H](N)CCCNC(=N)N)[C@@H](C)O)C(N)=O` [Peptide 157] (HELM PEPTIDE1{R.W.R.Y.T.Y.[dM].[am]}$$$$V2.0): greater than 10000 nM and less than 10 nM.
The corresponding values for `CSCC[C@@H](NC(=O)[C@@H](NC(=O)[C@H](CCCCN)NC(=O)[C@H](Cc1ccc(O)cc1)NC(=O)[C@H](CCCNC(=N)N)NC(=O)[C@H](Cc1c[nH]c2ccccc12)NC(=O)[C@@H](N)CCCNC(=N)N)C(C)C)C(N)=O` [Peptide 1] (HELM PEPTIDE1{R.W.R.Y.K.V.[dM].[am]}$$$$V2.0) are greater than 10000 nM and less than 10 nM.
Regarding `CC[C@H](C)[C@H](NC(C)=O)C(=O)N[C@@H](CCCCN)C(=O)N[C@@H](Cc1ccc(O)cc1)C(=O)N[C@@H](CCCCN)C(=O)N1CCC[C@H]1C(=O)N[C@H](CCSC)C(N)=O` [Peptide 143] (HELM PEPTIDE1{[ac].I.K.Y.K.P.[dM].[am]}$$$$V2.0), the figures for the EC50 at FPR1 and at FPR2 were greater than 10000 nM and less than 10 nM, respectively.
Turning to `CSCC[C@@H](NC(=O)[C@@H](NC(=O)[C@H](CCCNC(=N)N)NC(=O)[C@H](Cc1ccc(O)cc1)NC(=O)[C@H](CCCNC(=N)N)NC(=O)[C@H](Cc1c[nH]c2ccccc12)NC(=O)[C@@H](N)CCCNC(=N)N)[C@@H](C)O)C(N)=O` [Peptide 153] (HELM PEPTIDE1{R.W.R.Y.R.T.[dM].[am]}$$$$V2.0), the EC50 at FPR1 is greater than 10000 nM; at FPR2, 11 to 100 nM.
The matching figures for `CCCC(=O)N[C@@H](CCCNC(=N)N)C(=O)N[C@@H](CCSC)C(=O)N[C@@H](CCCNC(=N)N)C(=O)N[C@@H](Cc1ccc(O)cc1)C(=O)N[C@@H](Cc1c[nH]c2ccccc12)C(=O)N1CCC[C@H]1C(=O)N[C@H](CCSC)C(N)=O` [Peptide 108] (HELM PEPTIDE1{[CCCC(=O)[*:2]].R.M.R.Y.W.P.[dM].[am]}$$$$V2.0): 101 to 1000 nM and less than 10 nM.
As for `CCCC(=O)N1CCC[C@H]1C(=O)N[C@@H](CCCCN)C(=O)N[C@@H](Cc1ccc(O)cc1)C(=O)N[C@@H](CCCCN)C(=O)N[C@H](C(=O)N[C@H](CCSC)C(N)=O)C(C)C` [Peptide 140] (HELM PEPTIDE1{[CCCC(=O)[*:2]].P.K.Y.K.V.[dM].[am]}$$$$V2.0), the EC50 on FPR1 is greater than 10000 nM; on FPR2, less than 10 nM.
The matching figures for `CCCCCCCC(=O)N1CCC[C@H]1C(=O)N[C@@H](CCCCN)C(=O)N[C@@H](Cc1ccc(O)cc1)C(=O)N[C@@H](CCCCN)C(=O)N[C@H](C(=O)N[C@H](CCSC)C(N)=O)C(C)C` [Peptide 141] (HELM PEPTIDE1{[CCCCCCCC(=O)[*:2]].P.K.Y.K.V.[dM].[am]}$$$$V2.0): greater than 10000 nM and less than 10 nM.
As for `CCCC(=O)N[C@@H](Cc1c[nH]cn1)C(=O)N[C@@H](CCSC)C(=O)N[C@@H](CCCNC(=N)N)C(=O)N[C@@H](Cc1ccc(O)cc1)C(=O)N[C@@H](CCCCN)C(=O)N[C@@H](Cc1ccc(O)cc1)C(=O)N[C@H](CCSC)C(N)=O` [Peptide 45] (HELM PEPTIDE1{[CCCC(=O)[*:2]].H.M.R.Y.K.Y.[dM].[am]}$$$$V2.0), the EC50 at FPR1 was greater than 10000 nM; at FPR2, less than 10 nM.

Values taken from US20250361268A1, “NOVEL ANTI-INFLAMMATORY PEPTIDE AND USE THEREOF” (NOVACELL TECHNOLOGY INC., priority 2022, published 2025).
